Assay results reported in ChEMBL document CHEMBL3414533, “Thiophene containing trisubstituted methanes [TRSMs] as identified lead against Mycobacterium tuberculosis” (Eur J Med Chem, 2015).
In brackets after ≈: the same amount, converted by molar mass.

Tests used:
[1] = test system: Mycobacterium tuberculosis; assay: Antimycobacterial activity against rifampicin-resistant Mycobacterium tuberculosis by agar dilution method; type: functional
[2] = test system: Mycobacterium tuberculosis; assay: Antimycobacterial activity against multidrug-resistant Mycobacterium tuberculosis by agar dilution method; type: functional

COc1ccc(C(c2ccc(OCCN(C(C)C)C(C)C)cc2)c2cccs2)cc1 (configuration not stated)
MIC [1]: 6.25 µM (≈ 2.65 µg/mL) | MIC [2]: 6.25 µM (≈ 2.65 µg/mL)
